Where two headings read alike, the source gives them in different places.
Assays:
[1] = molecular target: T1, PI3Kα (Homo sapiens, UniProt P42336); assay: PI3 Kinase HTRF assay, PI3Kα; format: biochemical; conditions: 10 μM PIP2, 10 μM ATP; 'Greater than 10 μM' and 'Greater than 1 μM to 10 μM'; read-out: PI3K α IC50
T1 construct: purchased Millipore Corporation 14-602-K
Excerpt: (§1) A PI3-Kinase HTRF® assay kit (cat No. 33-016) purchased from Millipore Corporation was used to screen compounds provided herein. This assay used specific, high affinity binding of the GRP1 pleckstrin homology (PH) domain to PIP3, the product of a Class 1A or 1B PI3 Kinase acting on its physiological substrate PIP2. During the detection phase of the assay, a complex was generated between the GST-tagged PH domain and biotinylated short chain PIP3. The biotinylated PIP3 and the GST-tagged PH domain recruited fluorophores (Streptavidin-Allophycocyanin and Europium-labeled anti-GST respectively) to form the fluorescence resonance energy transfer (FRET) architecture, generating a stable time-resolved FRET signal. The FRET complex was disrupted in a competitive manner by non-biotinylated PIP3, a product formed in the PI3 Kinase assay.
(§2) PI3 Kinase α, β, γ and δ activity was assayed using the PI3 Kinase HTRF® assay kit (catalogue No. 33-016) purchased from Millipore Corporation. Purified recombinant PI3Kα (catalogue No. 14-602-K), PI3Kβ (catalogue No. 14-603-K), PI3Kγ (catalogue No. 14-558-K) and PI3Kδ (catalogue No. 14-604-K) were obtained from Millipore Corporation. Purified recombinant PI3K enzyme was used to catalyze the phosphorylation of phosphatidylinositol 4,5-bisphosphate (PIP2 at 10 μM) to phosphatidylinositol 3,4,5-trisphosphate (PIP3) in the presence of 10 μM ATP. The assay was carried out in 384-well format and detected using a Perkin Elmer EnVision Xcite Multilabel Reader. Emission ratios were converted into percent inhibitions and imported into GraphPad Prism software. The concentration necessary to achieve inhibition of enzyme activity by 50% (IC50) was calculated using concentrations ranging from 20 μM to 0.1 nM (12-point curve). IC50 values were determined using a nonlinear regression model available in GraphPad Prism 5. […]

[2] = system: Balb/c splenic B cells; assay: B cell activation and proliferation assay (Alamar Blue); format: cell-based; conditions: Mus musculus, 'Less than 100 nM'
Experimental: The ability of one or more subject compounds to inhibit B cell activation and proliferation is determined according to standard procedures known in the art. For example, an in vitro cellular proliferation assay is established that measures the metabolic activity of live cells. The assay is performed in a 96 well microtiter plate using Alamar Blue reduction. Balb/c splenic B cells are purified over a Ficoll-Paque™ PLUS gradient followed by magnetic cell separation using a MACS B cell Isolation Kit (Miletenyi). Cells are plated in 90 μl at 50,000 cells/well in B Cell Media (RPMI+10% FBS+Penn/Strep+50 μM bME+5 mM HEPES). A compound provided herein is diluted in B Cell Media and added in a 10 μl volume. Plates are incubated for 30 min at 37° C. and 5% CO2 (0.2% DMSO final concentration). A 50 μl B cell stimulation cocktail is then added containing either 10 μg/ml LPS or 5 μg/ml F(ab′)2 Donkey anti-mouse […] plus 2 ng/ml recombinant mouse IL4 in B Cell Media. Plates are incubated for 72 hours at 37° C. and 5% CO2. A volume of 15 μL of Alamar Blue reagent is added to each well and plates are incubated for 5 hours at 37° C. and 5% CO2. Alamar Blue fluoresce is read at 560Ex/590Em, and IC50 or EC50 values are calculated using GraphPad Prism 5.

[3] = molecular target: PI3Kβ; assay: PI3 Kinase HTRF assay, PI3Kβ; format: biochemical, human; conditions: 10 μM PIP2, 10 μM ATP, read-out: PI3K β IC50
PI3Kβ, sequence (Q8BTI9 whole entry): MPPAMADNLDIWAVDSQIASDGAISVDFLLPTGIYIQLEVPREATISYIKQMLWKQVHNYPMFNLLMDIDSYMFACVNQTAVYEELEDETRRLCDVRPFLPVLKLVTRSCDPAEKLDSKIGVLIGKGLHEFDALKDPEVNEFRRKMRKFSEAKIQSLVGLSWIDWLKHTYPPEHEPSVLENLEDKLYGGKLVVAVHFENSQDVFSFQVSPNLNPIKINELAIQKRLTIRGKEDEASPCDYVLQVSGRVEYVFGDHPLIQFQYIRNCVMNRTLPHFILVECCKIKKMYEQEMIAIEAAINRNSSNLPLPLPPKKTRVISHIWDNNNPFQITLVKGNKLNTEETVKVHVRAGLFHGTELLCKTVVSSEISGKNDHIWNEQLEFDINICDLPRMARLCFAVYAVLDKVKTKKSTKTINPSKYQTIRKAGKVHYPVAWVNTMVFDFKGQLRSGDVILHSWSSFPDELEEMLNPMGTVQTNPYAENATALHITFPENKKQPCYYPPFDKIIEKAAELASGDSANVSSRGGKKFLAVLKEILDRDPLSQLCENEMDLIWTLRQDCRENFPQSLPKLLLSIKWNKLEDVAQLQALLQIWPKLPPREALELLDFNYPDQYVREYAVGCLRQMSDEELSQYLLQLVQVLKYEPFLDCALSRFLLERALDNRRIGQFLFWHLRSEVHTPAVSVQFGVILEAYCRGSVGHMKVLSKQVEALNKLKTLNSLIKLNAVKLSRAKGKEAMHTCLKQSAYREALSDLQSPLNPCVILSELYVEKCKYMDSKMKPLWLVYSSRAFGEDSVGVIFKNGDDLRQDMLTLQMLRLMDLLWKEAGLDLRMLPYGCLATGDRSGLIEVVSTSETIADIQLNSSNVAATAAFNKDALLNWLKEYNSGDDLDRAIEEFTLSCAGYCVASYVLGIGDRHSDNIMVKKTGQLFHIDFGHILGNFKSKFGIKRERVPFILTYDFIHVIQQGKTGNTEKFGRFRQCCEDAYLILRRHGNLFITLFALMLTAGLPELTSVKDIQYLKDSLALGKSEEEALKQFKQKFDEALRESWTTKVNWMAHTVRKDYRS
Excerpt: as §1
as §2, with “Purified recombinant PI3Kα (catalogue No. 14-602-K), PI3Kβ (catalogue No. 14-603-K), PI3Kγ (catalogue No. 14-558-K) and PI3Kδ (catalogue No. 14-604-K) were obtained from Millipore Corporation.” left out, “The concentration necessary to achieve inhibition of enzyme activity by 50% (IC50) was calculated using concentrations ranging from 20 μM to 0.1 nM (12-point curve).” left out

[4] = 'Greater than 10 μM' and 'Greater than 1 μM to 10 μM'

T1 sequence (P42336 whole entry): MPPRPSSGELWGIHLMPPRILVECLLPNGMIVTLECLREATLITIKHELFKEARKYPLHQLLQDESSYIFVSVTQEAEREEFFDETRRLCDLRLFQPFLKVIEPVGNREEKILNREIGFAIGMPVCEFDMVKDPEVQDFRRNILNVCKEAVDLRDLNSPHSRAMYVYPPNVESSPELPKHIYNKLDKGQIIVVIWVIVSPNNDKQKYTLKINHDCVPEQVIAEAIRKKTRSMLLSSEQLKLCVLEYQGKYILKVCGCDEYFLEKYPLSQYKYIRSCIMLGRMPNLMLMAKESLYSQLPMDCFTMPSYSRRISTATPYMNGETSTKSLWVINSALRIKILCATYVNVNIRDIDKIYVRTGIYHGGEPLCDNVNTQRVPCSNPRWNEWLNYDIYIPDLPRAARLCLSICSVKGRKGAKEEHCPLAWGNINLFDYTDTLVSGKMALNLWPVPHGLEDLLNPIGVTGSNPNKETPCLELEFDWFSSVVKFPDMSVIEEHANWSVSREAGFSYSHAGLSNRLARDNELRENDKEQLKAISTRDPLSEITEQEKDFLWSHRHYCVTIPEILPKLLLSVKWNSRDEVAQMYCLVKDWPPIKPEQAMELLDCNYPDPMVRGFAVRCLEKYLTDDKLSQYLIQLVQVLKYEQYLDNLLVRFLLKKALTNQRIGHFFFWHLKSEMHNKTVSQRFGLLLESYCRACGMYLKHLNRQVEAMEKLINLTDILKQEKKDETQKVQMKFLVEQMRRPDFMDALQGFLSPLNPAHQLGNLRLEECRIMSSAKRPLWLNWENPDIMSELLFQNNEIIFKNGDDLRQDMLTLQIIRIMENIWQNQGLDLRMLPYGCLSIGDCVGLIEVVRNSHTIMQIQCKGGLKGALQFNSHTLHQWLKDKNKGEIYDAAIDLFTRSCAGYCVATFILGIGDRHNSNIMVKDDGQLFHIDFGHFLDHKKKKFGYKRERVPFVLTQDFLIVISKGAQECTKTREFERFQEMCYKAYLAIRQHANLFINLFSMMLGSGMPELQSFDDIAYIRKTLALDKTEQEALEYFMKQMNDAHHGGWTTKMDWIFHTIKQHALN
T1 sequence (P27986 whole entry partner): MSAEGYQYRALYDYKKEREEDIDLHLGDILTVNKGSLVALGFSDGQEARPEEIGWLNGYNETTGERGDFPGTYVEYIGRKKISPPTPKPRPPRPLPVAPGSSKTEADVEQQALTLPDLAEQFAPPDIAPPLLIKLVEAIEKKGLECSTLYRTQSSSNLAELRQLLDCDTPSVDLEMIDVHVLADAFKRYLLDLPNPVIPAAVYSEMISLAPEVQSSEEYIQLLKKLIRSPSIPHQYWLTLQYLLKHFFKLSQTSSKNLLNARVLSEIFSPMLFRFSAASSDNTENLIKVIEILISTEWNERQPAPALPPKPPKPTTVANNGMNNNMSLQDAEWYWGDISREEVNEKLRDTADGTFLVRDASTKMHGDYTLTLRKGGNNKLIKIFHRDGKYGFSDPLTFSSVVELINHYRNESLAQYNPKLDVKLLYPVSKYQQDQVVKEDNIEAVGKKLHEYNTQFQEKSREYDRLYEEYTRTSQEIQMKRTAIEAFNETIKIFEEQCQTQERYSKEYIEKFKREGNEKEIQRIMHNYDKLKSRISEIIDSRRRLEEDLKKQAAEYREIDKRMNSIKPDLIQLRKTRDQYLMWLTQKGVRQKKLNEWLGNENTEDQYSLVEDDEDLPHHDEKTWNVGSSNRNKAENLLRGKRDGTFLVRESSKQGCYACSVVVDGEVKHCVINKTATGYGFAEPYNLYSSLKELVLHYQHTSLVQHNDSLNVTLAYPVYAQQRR

| SMILES | IC50 [1] [nM] | EC50 [2] [nM] | IC50 [3, 4] [nM] | IC50 ([3]; 'Less than 100 nM') [nM] |
| --- | --- | --- | --- | --- |
| C[C@H](Nc1ncnc2cccnc12)c1cc2cccc(C(F)(F)F)c2c(=O)n1-c1ccccc1 [III-4] | 1000 to 10000 | < 100 |  |  |
| C[C@H](Nc1ccnc2cccnc12)c1cc2cccc(-c3cnn(C)c3)c2c(=O)n1-c1ccccc1 [Compound I-51] | 1000 to 10000 | < 100 | 1000 to 10000 |  |
| C[C@H](Nc1ncnc2cccnc12)c1cc2scc(Cl)c2c(=O)n1-c1ccccc1 [Compound I-29] | 1000 to 10000 |  |  |  |
| C[C@H](Nc1ncnc2cccnc12)c1cc2cccc(Cl)c2c(=O)n1-c1ccccc1 [Compound I-2] | 1000 to 10000 | < 100 |  |  |
| C[C@H](Nc1nc(N)nc2cccnc12)c1cc2cccc(-c3cnn(C)c3)c2c(=O)n1-c1ccccc1 [Compound I-36] | 1000 to 10000 |  | > 10000 |  |
| C[C@H](Nc1ccnn2ccnc12)c1cc2cccc(Cl)c2c(=O)n1-c1cccc(F)c1 [II-14] | 1000 to 10000 | < 100 |  |  |
| C[C@H](Nc1ncnc2scnc12)c1cc2cccc(C(F)(F)F)c2c(=O)n1-c1cccc(F)c1 [III-10] | 1000 to 10000 | < 100 |  |  |
| C[C@H](Nc1ncnc2scnc12)c1cc2scc(C(F)(F)F)c2c(=O)n1-c1ccccc1 [III-39] | 1000 to 10000 | < 100 |  |  |
| C[C@H](Nc1ncnn2ccnc12)c1cc2cccc(C(F)(F)F)c2c(=O)n1-c1ccccc1 [III-27] | 1000 to 10000 | < 100 |  |  |
| C[C@H](Nc1nc(N)nc2cccnc12)c1cc2cccc(C(F)(F)F)c2c(=O)n1-c1ccccc1 [III-23] | 1000 to 10000 |  |  |  |
| C[C@H](Nc1ncnc2[nH]cc(C(N)=O)c12)c1cc2cccc(C(F)(F)F)c2c(=O)n1-c1ccccc1 [III-20] | 1000 to 10000 |  |  |  |
| C[C@H](Nc1ccnc2ccnn12)c1cc2cccc(Cl)c2c(=O)n1-c1ccccc1 [II-2, (S)-8-chloro-2-phenyl-3-(1-(pyrazolo[1,5-a]pyrimidin-7-ylamino)ethyl)isoquinolin-1(2H)-one] | 1000 to 10000 | < 100 |  |  |
| C[C@H](Nc1ncnn2ccnc12)c1cc2cccc(Cl)c2c(=O)n1-c1cccc(F)c1 [IV-13] | 1000 to 10000 |  | 1000 to 10000 |  |
| C[C@H](Nc1ccnc2scnc12)c1cc2cccc(C(F)(F)F)c2c(=O)n1-c1ccccc1 [III-36, (S)-2-phenyl-3-(1-(thiazolo[5,4-b]pyridin-7-ylamino)ethyl)-8-(trifluoromethyl)isoquinolin-1(2H)-one] | 1000 to 10000 | < 100 |  |  |
| C[C@H](Nc1ccnc2ccnn12)c1cc2cccc(C(F)(F)F)c2c(=O)n1-c1ccccc1 [III-6] | 1000 to 10000 | < 100 |  |  |
| Cc1nn(C)cc1-c1cccc2cc([C@H](C)Nc3ncnc4cccnc34)n(-c3ccccc3)c(=O)c12 [Compound I-47] | 1000 to 10000 |  | > 10000 |  |
| C[C@H](Nc1ccnn2ccnc12)c1cc2scc(Cl)c2c(=O)n1-c1ccccc1 [II-22] | 1000 to 10000 |  |  |  |
| C[C@H](Nc1ccnn2ccnc12)c1cc2cccc(C(F)(F)F)c2c(=O)n1-c1ccccc1 [III-8, (S)-3-(1-(imidazo[1,2-b]pyridazin-8-ylamino)ethyl)-2-phenyl-8-(trifluoromethyl)isoquinolin-1(2H)-one] | 1000 to 10000 | < 100 |  |  |
| C[C@H](Nc1ccnn2ccnc12)c1cc2cccc(Cl)c2c(=O)n1C1CC1 [II-11] | 1000 to 10000 | < 100 |  |  |
| C[C@H](Nc1nc(N)nc2scnc12)c1cc2cccc(C(F)(F)F)c2c(=O)n1-c1ccccc1 [III-25] | 1000 to 10000 |  | 1000 to 10000 |  |
| COc1ncc(-c2cccc3cc([C@H](C)Nc4ccnn5ccnc45)n(-c4ccccc4)c(=O)c23)cn1 [II-48] | 1000 to 10000 |  | > 10000 |  |
| C[C@H](Nc1ncnc(N)c1C#N)c1cc2cccc(C(F)(F)F)c2c(=O)n1-c1cccc(F)c1 [III-49] | 1000 to 10000 | < 100 |  |  |

| SMILES | IC50 [1] [nM] | EC50 [2] [nM] | IC50 [3, 4] [nM] | IC50 ([3]; 'Less than 100 nM') [nM] |
| --- | --- | --- | --- | --- |
| C[C@H](Nc1nc(N)ncc1C#N)c1cc2cccc(C(F)(F)F)c2c(=O)n1-c1cccc(F)c1 [III-45] | 1000 to 10000 | < 100 |  |  |
| C[C@H](Nc1ncnc2scnc12)c1cc2cccc(C(F)(F)F)c2c(=O)n1-c1ccccc1 [III-5] |  | < 100 |  | < 100 |
| Cc1cncc(-c2cccc3cc([C@H](C)Nc4nc(N)nc5cccnc45)n(-c4ccccc4)c(=O)c23)c1 [Compound I-75] |  | < 100 | 1000 to 10000 |  |
| COc1ncc(-c2cccc3cc([C@H](C)Nc4nc(N)nc5cccnc45)n(-c4cccc(F)c4)c(=O)c23)cn1 [Compound I-78] |  | < 100 | > 10000 |  |
| COc1ncc(-c2cccc3cc([C@H](C)Nc4ncnc5cccnc45)n(-c4ccccc4)c(=O)c23)cn1 [Compound I-42] |  | < 100 | > 10000 |  |
| C[C@H](Nc1ncnc2[nH]cnc12)c1cc2cccc(C(F)(F)F)c2c(=O)n1-c1ccccc1 [III-3] | 1000 to 10000 | < 100 |  |  |
| COc1ncc(-c2cccc3cc([C@H](C)Nc4nc(N)nc5cccnc45)n(-c4ccccc4)c(=O)c23)cn1 [Compound I-57] |  | < 100 | > 10000 |  |
| C[C@H](Nc1ccnc2cccnc12)c1cc2cccc(Cl)c2c(=O)n1-c1ccccc1 [Compound I-49] | 1000 to 10000 | < 100 |  |  |
| C[C@H](Nc1ccnc2ccnn12)c1cc2cccc(Cl)c2c(=O)n1C1CC1 [II-7] | 1000 to 10000 | < 100 |  |  |
| C[C@H](Nc1ccnc2ccnn12)c1cc2scc(Cl)c2c(=O)n1-c1ccccc1 [II-20] | 1000 to 10000 |  |  |  |
| C[C@H](Nc1ccnn2ccnc12)c1cc2cccc(Cl)c2c(=O)n1-c1ccccc1 [II-10] |  | < 100 |  | < 100 |
| C[C@H](Nc1nc(N)ncc1C#N)c1cc2cccc(C(F)(F)F)c2c(=O)n1-c1ccccc1 [III-44] | 1000 to 10000 | < 100 |  |  |
| Cc1cc(-c2cccc3nc([C@H](C)Nc4nc(N)nc5cccnc45)n(-c4ccccc4)c(=O)c23)ccn1 [Compound I-88] |  | < 100 | 1000 to 10000 |  |
| C[C@H](Nc1nc(N)nc2[nH]cnc12)c1cc2cccc(C(F)(F)F)c2c(=O)n1-c1cccc(F)c1 [III-30] | 1000 to 10000 | < 100 |  |  |
| C[C@H](Nc1ncnn2ccnc12)c1cc2cccc(Cl)c2c(=O)n1-c1ccccc1 [IV-12] | 1000 to 10000 |  |  |  |
| C[C@H](Nc1ncnc2[nH]cc(F)c12)c1cc2cccc(C(F)(F)F)c2c(=O)n1-c1ccccc1 [III-18] | 1000 to 10000 |  | 1000 to 10000 |  |
| C[C@H](Nc1nc(N)nc2[nH]cnc12)c1cc2cccc(C(F)(F)F)c2c(=O)n1-c1ccccc1 [III-17] |  | < 100 |  | < 100 |
| Cc1cccc2cc([C@H](C)Nc3nc(N)nc4cccnc34)n(-c3cccc(F)c3)c(=O)c12 [Compound I-85] |  | < 100 | 1000 to 10000 |  |
| COc1ncc(-c2cccc3cc([C@H](C)Nc4cc(N)nc5ccnn45)n(-c4ccccc4)c(=O)c23)cn1 [II-50] |  | < 100 | > 10000 |  |
| C[C@H](Nc1ncnc2ccnn12)c1cc2cccc(Cl)c2c(=O)n1-c1ccccc1 [II-24] | 1000 to 10000 |  |  |  |
| CNc1nc(N[C@@H](C)c2cc3cccc(-c4cnc(OC)nc4)c3c(=O)n2-c2ccccc2)c2ncccc2n1 [Compound I-97] |  | < 100 | > 10000 |  |
| Cc1cc(-c2cccc3cc([C@H](C)Nc4ncnc5cccnc45)n(-c4ccccc4)c(=O)c23)cnc1C [Compound I-44] | 1000 to 10000 |  | > 10000 |  |

Reference: patent publication US8969363B2, “Heterocyclic compounds and uses thereof” (Infinity Pharmaceuticals, Inc., priority 2011, dated 2015)
